From patent publication US20050244335A1, “Methods and compositions related to increasing antitumor activity of chemotherapeutic agents” (priority 2004, published 2005)

Columns and labels:
[1] = Pharmacokinetics of carboplatin in nude mice bearing A549 xenografts; type: in vivo; conditions: for AUC / CL / Cmax / T1/2 / Vss: nude mice bearing A549 xenografts, carboplatin 60 mg/kg iv
Method: Pharmacokinetics and Tissue Distribution of Carboplatin. Pharmacokinetic studies were carried out using a protocol similar to that previously described (26) using metabolism cages. Female nude mice bearing human colon cancer LS174T xenografts or human lung cancer A549 xenografts were used (3 animals for each time point). Animals were pre-treated with DEX (s.c., 0.1 mg/day/mouse for 5 days) or saline (as controls) and, at 1 hr after the fifth dose of DEX, were given a single intravenously (i.v.) bolus administration of carboplatin (60 mg/kg) via a tail vein. At various times (5, 15, and 30 min, 1, 2, 4, 8, and 24 hr after carboplatin dosing), blood samples were collected in heparinized tubes and tissue samples removed. Plasma was separated by centrifugation at 20,000 g for 5 min. Tissues including liver, kidneys, spleen, and tumor were taken at various times and immediately blotted on Whatman No. 1 filter paper, trimmed of extraneous fat or connective tissue, weighed, and homogenized in 0.9% NaCl physiological saline (5 mL per gram of wet weight). The resultant homogenates were stored at −70° C. until further analysis. Bone marrow cells were harvested by flushing the femurs with sterile physiological saline as reported previously (30). Briefly, after removing the distal and proximal ends of femur, each end of the bone was punctured with a 20-gauge needle fitted with a 5 mL syringe containing 1 mL of sterile physiological saline (pre-weighed). The bone was then held with a forceps over a test tube and the needle was inserted into the hole in the proximal end. The 1 mL saline was flushed through the bone into the tube by applying gentle, steady pressure to the plunger. The syringe was then filled with 5 ml of air that was gently forced through the bone to remove the remaining saline and bone marrow in the shaft. The resultant bone marrow cell suspension was weighed and lysed by sonicating 5 times for periods of 10 sec. Following centrifugation at 20,000 g for 30 min, the supernatant was removed and stored at −70° C. until further analysis.
HPLC Analysis of Carboplatin in Plasma and Tissues. Carboplatin in biological samples was analyzed by an analytical procedure involving micro-filtration and reversed-phase HPLC (31). 200 μL of plasma or tissue homogenates or bone marrow suspension was added to the reservoir of a Centrifree™ micropartition system. The latter was capped and centrifuged at 2,000 g for 5 min. All filtrates were transferred into a new micro centrifuge tube and 6 μL of the filtrates was injected onto the HPLC column. The HPLC system consisted of a Hewlett Packard 1050 ChemStation with a UV detector (Agilent 1050 series). Determination of Carboplatin was achieved using a LiChrosorb™ diol (10 μm, 250×4.6 mm) analytical column with a LiChroCART 100 RP-18 guard column. The mobile phase for plasma was composed of 98:2 acetonitrile:H2O (vol/vol) and 89:11 acetonitrile: 0.015% H3PO4 (vol/vol) for urine and tissue samples. The flow rates were 2 mL/min (for plasma) and 1.1 mL/min (for urine and tissue samples). The column elute was monitored by UV at 229 nm. Quantitation of plasma or tissue carboplatin was carried out by using an external standard curve (0-4,000.0 μg/mL) that was freshly prepared on a daily basis. Linear regression and correlation analysis were carried out to establish the standard peak-area/concentration curves for carboplatin.
(§1) Data and Statistical Analysis.

[2] = test system: human breast cancer MCF-7 xenografts; assay: In vivo chemotherapy, breast cancer MCF-7 xenograft model in nude mice; conditions: MCF-7 model; agent alone
Excerpt: Cell Culture. […] All media contained 1% penicillin-streptomycin.
as §1

N.N.O=C([O-])C1(C(=O)[O-])CCC1.[Pt+2] [carboplatin]
increase in tumor AUC by DEX pretreatment ([1]; A549 nude mice): 50% | AUC ([1]; bone marrow, DEX (+)): 517210 ng·h/mL | CL ([1]; bone marrow, DEX (+)): 0.01 mL/g/h | Cmax ([1]; bone marrow, DEX (+)): 27290 ng/mL | T1/2 ([1]; bone marrow, DEX (+)): 30 min | Vss ([1]; bone marrow, DEX (+)): 2.72 mL/g | AUC ([1]; bone marrow, DEX (−)): 641040 ng·h/mL | CL ([1]; bone marrow, DEX (−)): 0.01 mL/g/h | Cmax ([1]; bone marrow, DEX (−)): 32580 ng/mL | T1/2 ([1]; bone marrow, DEX (−)): 30 min | Vss ([1]; bone marrow, DEX (−)): 1.97 mL/g | AUC ([1]; liver, DEX (+)): 21680 ng·h/mL | CL ([1]; liver, DEX (+)): 4.79 mL/g/h | Cmax ([1]; liver, DEX (+)): 5910 ng/mL | T1/2 ([1]; liver, DEX (+)): 60 min | Vss ([1]; liver, DEX (+)): 9.05 mL/g | AUC ([1]; liver, DEX (−)): 26320 ng·h/mL | CL ([1]; liver, DEX (−)): 3.99 mL/g/h | Cmax ([1]; liver, DEX (−)): 7000 ng/mL | T1/2 ([1]; liver, DEX (−)): 60 min | Vss ([1]; liver, DEX (−)): 8.31 mL/g | AUC ([1]; plasma, DEX (+)): 66080 ng·h/mL | CL ([1]; plasma, DEX (+)): 0.91 mL/g/h | Cmax ([1]; plasma, DEX (+)): 411890 ng/mL | T1/2 ([1]; plasma, DEX (+)): 6.6 min | Vss ([1]; plasma, DEX (+)): 0.15 mL/g | AUC ([1]; plasma, DEX (−)): 55220 ng·h/mL | CL ([1]; plasma, DEX (−)): 1.09 mL/g/h | Cmax ([1]; plasma, DEX (−)): 357340 ng/mL | T1/2 ([1]; plasma, DEX (−)): 6.6 min | Vss ([1]; plasma, DEX (−)): 0.17 mL/g | AUC ([1]; spleen, DEX (+)): 75590 ng·h/mL | CL ([1]; spleen, DEX (+)): 0.79 mL/g/h | Cmax ([1]; spleen, DEX (+)): 482140 ng/mL | T1/2 ([1]; spleen, DEX (+)): 6.6 min | Vss ([1]; spleen, DEX (+)): 0.12 mL/g | AUC ([1]; spleen, DEX (−)): 359440 ng·h/mL | CL ([1]; spleen, DEX (−)): 0.17 mL/g/h | Cmax ([1]; spleen, DEX (−)): 341990 ng/mL | T1/2 ([1]; spleen, DEX (−)): 43.8 min | Vss ([1]; spleen, DEX (−)): 0.18 mL/g | AUC ([1]; tumor, DEX (+)): 15480 ng·h/mL | CL ([1]; tumor, DEX (+)): 3.88 mL/g/h | Cmax ([1]; tumor, DEX (+)): 64090 ng/mL | T1/2 ([1]; tumor, DEX (+)): 10.2 min | Vss ([1]; tumor, DEX (+)): 0.94 mL/g | AUC ([1]; tumor, DEX (−)): 10160 ng·h/mL | CL ([1]; tumor, DEX (−)): 5.90 mL/g/h | Cmax ([1]; tumor, DEX (−)): 32150 ng/mL | T1/2 ([1]; tumor, DEX (−)): 13.2 min | Vss ([1]; tumor, DEX (−)): 1.87 mL/g | effect on tumor growth [2]: limited effects on tumor growth
